# From patent publication US20240358829A1, “Lymphocyte Population and Methods for Producing Same” (AVM Biotechnology, LLC, priority 2021, published 2024)
# Several values for one entry are separate records, joined by “and”; a condition that tells them apart may be missing. Identical values can stand only once.
# Tested on: CD56+γδTCR+iTCR+ cells
# Assay: AVM0703 R/R NHL clinical trial, whole blood flow cytometry
# Type: in vivo, human
# Method: FIG. 15. 101-001 size (FSC) and complexity (SSC) scattergram of AVM_NKT cells. […] Blood was stained with panel antibodies based for 15 minutes in the dark at Room Temperature. RBC lysis was performed by addition of 1 mL of 1×BD FACS Lysing Solution (BD Bioscience), diluted with MilliQ water, for 10 minutes in the dark at Room Temperature. Samples were washed with 2 mL 1×DPBS CMF (Gibco) and resuspended in 300 μL of 1×DPBS CMF before 5 μL of 7AAD (Biolegend) was added to each sample for live/dead cell determination and incubated for 5 minutes in the dark at Room Temperature. 250 μL of sample were taken up for acquisition on Macsquant 16 Flow Cytometer (Miltenyi, Serial #40150). Live white blood cells were gated for CD56+ cells co-expressing gamma delta TCR and the invariant TCR and labelled red in the forward versus side scattergram. Red-labelled cells fall within the forward versus side scattergrams where large granular cells such as neutrophils and large granular lymphocytes are known to fall.
# For characterisation of the induced/mobilized population of NKT-like cells (AVM-NKT) in humans, whole blood from human subjects was drawn in K2 EDTA Vacutainer tube (367862, BD Biosciences, NJ) and shipped to AVM Biotechnology at room temperature. 100 μl of whole blood was stained with the following antibodies: CD45 AF700 (2D1), CD16 APC (3G8), INKT PECy7 (6B11), CD8 PE (SK1), CD14 FITC (M5E2), CD56 BV650 (5.1H11), γδTCR BV510 (B1), CD19 BV421 (HIB19), NKp44 APC (P44-8) (all from Biolegend, San Diego, CA) and CD3 APCVio770 (BW264/56), (Miltenyi Biotec, San Jose, CA), 7-AAD, (Biolegend, San Diego CA) was included to distinguish the live and dead cells.
# [1] = patient 101-001, 6 mg/kg, 1 hour post-infusion
# [2] = patient 101-001, 6 mg/kg, Day 14
# [3] = patient 103-002, 6 mg/kg, 1 hour post-infusion
# [4] = patient 103-002, 6 mg/kg, Day 3
# [5] = patient 103-002, 6 mg/kg, Day 14
# [6] = patient 103-005, 9 mg/kg, 1 hour post-infusion
# [7] = patient 103-005, 9 mg/kg, Day 3
# [8] = patient 103-005, 9 mg/kg, Day 14
# [9] = patient 103-006, 9 mg/kg, day 3
# [10] = patient 103-006, 9 mg/kg, day 14
# [11] = patient 108-001, 1st 9 mg/kg infusion, 1 hour
smiles,measurement,setting,value
"C[C@@H]1C[C@H]2[C@@H]3CCC4=CC(=O)C=C[C@]4(C)[C@@]3(F)[C@@H](O)C[C@]2(C)[C@@]1(O)C(=O)COP(=O)(O)O [AVM0703, dexamethasone sodium phosphate]",time to mobilization of bi-specific gamma delta TCR+ invariant TCR+ cell into the blood,"R/R NHL clinical trial patients, dosing between 6 mg/kg and 18 mg/kg",30 to 60 min
same,CD56+gdTCR+ inv TCR+ cells induced,"patient 101-001, 6 mg/kg",YES
same,CD3 (as % of CD56+ γδTCR+ iTCR+ cells),[1],39%
same,CD8med (as % of CD56+ γδTCR+ iTCR+ cells),[1],86%
same,CD19+ (as % of CD56+ γδTCR+ iTCR+ cells),[1],54%
same,CD45 (as % of CD56+ γδTCR+ iTCR+ cells),[1],99%
same,CD56+ γδTCR+ iTCR+ % of total WBCs,[1],0.24%
same,CD56+ γδTCR+ iTCR+ cells/uL,[1],11.4 cells/uL
same,TCRαβ (as % of CD56+ γδTCR+ iTCR+ cells),[1],100%
same,CD3 (as % of CD56+ γδTCR+ iTCR+ cells),[2],99%
same,CD8med (as % of CD56+ γδTCR+ iTCR+ cells),[2],94%
same,CD19+ (as % of CD56+ γδTCR+ iTCR+ cells),[2],22%
same,CD45 (as % of CD56+ γδTCR+ iTCR+ cells),[2],99.5%
same,CD56+ γδTCR+ iTCR+ % of total WBCs,[2],1.74%
same,CD56+ γδTCR+ iTCR+ cells/uL,[2],78.7 cells/uL and 79 cells/uL
same,TCRαβ (as % of CD56+ γδTCR+ iTCR+ cells),[2],99%
same,"CD56+γδTCR+ cells, % of all CD45+ cells","patient 101-001, one hour after 6 mg/kg infusion (pre-infusion 1.6%)",3.48%
same,CD56+γδTCR+ cells/uL blood,"patient 101-001, one hour after 6 mg/kg infusion (pre-infusion 76)",165 cells/uL blood
same,% of CD56+γδTCR+ cells co-expressing invTCR,"patient 103-002, 6 mg/kg",about 10%
same,CD56+gdTCR+ inv TCR+ cells induced,"patient 103-002, 6 mg/kg",YES
same,CD3 (as % of CD56+ γδTCR+ iTCR+ cells),[3],4.2%
same,CD8hi (as % of CD56+ γδTCR+ iTCR+ cells),[3],2.6%
same,CD8med (as % of CD56+ γδTCR+ iTCR+ cells),[3],2.9%
same,CD19+ (as % of CD56+ γδTCR+ iTCR+ cells),[3],0.78%
same,CD45 (as % of CD56+ γδTCR+ iTCR+ cells),[3],92%
same,CD56+ γδTCR+ iTCR+ % of total WBCs,[3],0.83%
same,CD56+ γδTCR+ iTCR+ cells/uL,[3],65.6 cells/uL
same,TCRαβ (as % of CD56+ γδTCR+ iTCR+ cells),[3],79%
same,"CD56+γδTCR+ cells, % of all CD45+ cells","patient 103-002, 6 mg/kg, 1 hour post-infusion (pre-infusion 9.3%)",6.54%
same,CD56+γδTCR+ cells/uL blood,"patient 103-002, 6 mg/kg, 1 hour post-infusion (pre-infusion 735)",517 cells/uL blood
same,CD3 (as % of CD56+ γδTCR+ iTCR+ cells),[4],67%
same,CD8hi (as % of CD56+ γδTCR+ iTCR+ cells),[4],2%
same,CD8med (as % of CD56+ γδTCR+ iTCR+ cells),[4],30%
same,CD19+ (as % of CD56+ γδTCR+ iTCR+ cells),[4],4% and 4.2%
same,CD45 (as % of CD56+ γδTCR+ iTCR+ cells),[4],17%
same,CD56+ γδTCR+ iTCR+ % of total WBCs,[4],1.99%
same,CD56+ γδTCR+ iTCR+ cells/uL,[4],366 cells/uL and 366.2 cells/uL
same,TCRαβ (as % of CD56+ γδTCR+ iTCR+ cells),[4],54%
same,CD3 (as % of CD56+ γδTCR+ iTCR+ cells),[5],31.5%
same,CD8hi (as % of CD56+ γδTCR+ iTCR+ cells),[5],2.4%
same,CD8med (as % of CD56+ γδTCR+ iTCR+ cells),[5],70%
same,CD19+ (as % of CD56+ γδTCR+ iTCR+ cells),[5],1.76%
same,CD45 (as % of CD56+ γδTCR+ iTCR+ cells),[5],98%
same,CD56+ γδTCR+ iTCR+ % of total WBCs,[5],0.42%
same,CD56+ γδTCR+ iTCR+ cells/uL,[5],27 cells/uL
same,TCRαβ (as % of CD56+ γδTCR+ iTCR+ cells),[5],78%
same,CD56+gdTCR+ inv TCR+ cells induced,"patient 103-004, 6 mg/kg",YES
same,CD56+gdTCR+ inv TCR+ cells induced,"patient 103-005, 9 mg/kg",YES
same,CD3 (as % of CD56+ γδTCR+ iTCR+ cells),[6],6%
same,CD8med (as % of CD56+ γδTCR+ iTCR+ cells),[6],17%
same,CD14+ (as % of CD56+ γδTCR+ iTCR+ cells),[6],76%
same,CD16 (as % of CD56+ γδTCR+ iTCR+ cells),[6],66%
same,CD19+ (as % of CD56+ γδTCR+ iTCR+ cells),[6],33.9%
same,CD45 (as % of CD56+ γδTCR+ iTCR+ cells),[6],99%
same,CD56+ γδTCR+ iTCR+ % of total WBCs,[6],0.87%
same,CD56+ γδTCR+ iTCR+ cells/uL,[6],21.8 cells/uL
same,CD3 (as % of CD56+ γδTCR+ iTCR+ cells),[7],10%
same,CD8med (as % of CD56+ γδTCR+ iTCR+ cells),[7],15%
same,CD14+ (as % of CD56+ γδTCR+ iTCR+ cells),[7],8%
same,CD16 (as % of CD56+ γδTCR+ iTCR+ cells),[7],84%
same,CD19+ (as % of CD56+ γδTCR+ iTCR+ cells),[7],28%
same,CD45 (as % of CD56+ γδTCR+ iTCR+ cells),[7],63%
same,CD56+ γδTCR+ iTCR+ % of total WBCs,[7],2.67%
same,CD56+ γδTCR+ iTCR+ cells/uL,[7],82.8 cells/uL
same,CD3 (as % of CD56+ γδTCR+ iTCR+ cells),[8],66%
same,CD8med (as % of CD56+ γδTCR+ iTCR+ cells),[8],16%
same,CD14+ (as % of CD56+ γδTCR+ iTCR+ cells),[8],81%
same,CD16 (as % of CD56+ γδTCR+ iTCR+ cells),[8],37%
same,CD19+ (as % of CD56+ γδTCR+ iTCR+ cells),[8],99%
same,CD45 (as % of CD56+ γδTCR+ iTCR+ cells),[8],84%
same,CD56+ γδTCR+ iTCR+ % of total WBCs,[8],0.66%
same,CD56+ γδTCR+ iTCR+ cells/uL,[8],22.4 cells/uL
same,"CD56+γδTCR+ cells, % of CD45+ cells","patient 103-005, one hour after 9 mg/kg (baseline 2.7%)",0.21%
same,% of CD56+γδTCR+ cells expressing CD16,[9],92%
same,% of CD56+γδTCR+ cells expressing NKp44,[9],19%
same,"CD56+γδTCR+ cells, % of all WBCs",[9],2.2%
same,ICAM3 MFI of CD56+γδTCR+ cells,[9],240
same,% of CD56+γδTCR+ cells expressing CD16,[10],92%
same,% of CD56+γδTCR+ cells expressing NKp44,[10],19%
same,"CD56+γδTCR+ cells, % of all WBCs",[10],2.2% and 0.11%
same,ICAM3 MFI of CD56+γδTCR+ cells,[10],240
same,"CD56+γδTCR+ cells, number or expression in the blood","patient 103-006, one hour after 9 mg/kg",had not changed
same,% of CD56+γδTCR+ cells NKp44+,"patient 103-006, one hour after 9 mg/kg (baseline 42%)",25%
same,ICAM3 MFI of CD56+γδTCR+ cells,"patient 103-006, one hour after 9 mg/kg (baseline 294)",no change
same,CD56+gdTCR+ inv TCR+ cells induced,"patient 108-001, 9 mg/kg",YES
same,CD3 (as % of CD56+ γδTCR+ iTCR+ cells),[11],4%
same,CD8hi (as % of CD56+ γδTCR+ iTCR+ cells),[11],1%
same,CD8med (as % of CD56+ γδTCR+ iTCR+ cells),[11],11%
same,CD14+ (as % of CD56+ γδTCR+ iTCR+ cells),[11],35%
same,CD16 (as % of CD56+ γδTCR+ iTCR+ cells),[11],90%
same,CD19+ (as % of CD56+ γδTCR+ iTCR+ cells),[11],11.3%
